How the values were obtained:
[1] = test system: OVA asthma model of rat; assay: OVA asthma model of rat: infiltration of inflammatory cells in bronchoalveolar washings; assay type: in vivo, Brown Norway (BN) Rats; details: BN rats, 10 mg/kg p.o. once a day for three days, total cell number in bronchoalveolar washings vs control group
Procedure: (§1) Brown Norway (BN) Rats were sensitized by i.p. administration of 0.1 mg/mL of ovalbumin (OVA) and 1 mg of aluminum hydroxide gel. A solution of 1% OVA was aerosolized by ultrasonic nebulizer (NE-U17) and the rats were subjected to inhalation exposure of the aerosol for 30 minutes in an exposing chamber 12, 19, 26 and 33 days after the sensitization. One hour before the 4th exposure of the antigen, compounds of the present invention were administered in a dose of 10 mg/kg p.o. once a day for three days consecutively. In a control group, 0.5% of methyl cellulose was administered in place of the compound of the present invention.
(§2) After the measurement of increased hyperresponsive airway was completed, bronchoalveoli of the rats were washed with 5 mL of saline three times. Total cell number in the washings was counted by a hemacytometer under light microscope, and inhibition rates of infiltration of inflammatory cells against the control group were calculated. Further, mucin in the airway lavage fluid was measured by ELISA method using jacalin, a mucin-binding lectin, and the inhibition rates of mucus-secretion against the control group were calculated.

[2] = test system: OVA asthma model of rat; assay: OVA asthma model of rat: increased hyperresponsive airway (acetylcholine); assay type: in vivo, Brown Norway (BN) Rats; details: BN rats, 10 mg/kg p.o. once a day for three days, vs control group, AUC of acetylcholine response curve
Procedure: as §1
Under pentobarbital anesthesia (80 mg/kg, i.p.), acetylcholine (3.9, 7.8, 15.6, 31.3, 62.5, 125, 250 and 500 μg/kg) was injected to jugular vein of the rats successively from a lower dose at intervals of 5 minutes three days after the fourth exposure to the antigen, and immediate contractile reaction of airways (an increase of insufflation pressure) was measured by a modified method of Konnzett & Rössler. Inhibition rate of increased hyperresponsive airway against the control group was calculated based on area under the curve (AUC) obtained from concentration-response curve of acetylcholine.

[3] = test system: OVA asthma model of rat; assay: OVA asthma model of rat: mucus-secretion (mucin in airway lavage fluid, ELISA); assay type: in vivo, Brown Norway (BN) Rats; details: BN rats, 10 mg/kg p.o. once a day for three days, mucin in airway lavage fluid by ELISA vs control group
Procedure: as §1, §2

[4] = biological target: T1, DP receptor (Homo sapiens (Human), UniProt Q13258); assay: Receptor binding assay, [3H]-PGD2, platelet membrane
T1 sequence (Q13258 whole entry): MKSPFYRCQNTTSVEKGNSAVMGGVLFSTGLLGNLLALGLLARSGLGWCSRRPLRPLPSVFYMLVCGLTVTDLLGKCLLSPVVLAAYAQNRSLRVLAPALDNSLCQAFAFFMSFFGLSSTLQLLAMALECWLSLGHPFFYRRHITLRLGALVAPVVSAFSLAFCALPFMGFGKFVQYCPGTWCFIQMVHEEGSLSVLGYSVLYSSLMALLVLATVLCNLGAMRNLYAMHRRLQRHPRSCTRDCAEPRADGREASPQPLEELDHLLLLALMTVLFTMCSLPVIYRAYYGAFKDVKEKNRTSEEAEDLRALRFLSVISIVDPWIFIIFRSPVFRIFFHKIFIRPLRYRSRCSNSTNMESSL
Procedure: 2) Receptor Binding Assay
A prepared WP was homogenated and a membrane fraction was collected with high-speed centrifugation. A compound of the present invention was added to the plate and [^3H]-PGD2 was also added. A platelet membrane, a protein concentration is 2 mg/mL, was added and mixed in the plate, and placed on ice for 2 hours. The reaction solution was transferred to a low protein-adsorptive filter and washed with a wash solution eight times using a cell harvester. After the final washing, water was removed sufficiently, and scintillator was added. DP inhibitory activity was investigated by measuring [^3H] by using Micro Beta.

[5] = biological target: T1, DP receptor; assay: cAMP assay with washed platelets (DP inhibitory activity in vitro); assay type: cell-based; details: 100 nM of PGD2, cAMP by HTRF, read-out: IC50 (50% DP-inhibitory concentration in the cAMP assay)
Procedure: 1) Preparation of Platelet and a Method of cAMP Assay
30 mL of peripheral blood was collected from a healthy volunteer using a syringe containing one ninth amount of 3.8% sodium citrate. After being centrifuged at 180 g for 10 minutes at room temperature, a supernatant was collected and used as Platelet Rich Plasma (PRP). The resulting PRP was washed with wash buffer and centrifuged three times (Washed Platelet: WP) and platelets were counted by a microcell counter. WP was added to a plate in amount of 1.5×10^8/assay and the plate was treated with 3-isobutyl-1-methylxanthin (IBMX; 0.5 mM) for 5 minutes. A reaction was initiated by adding 100 nM of PGD2 5 min after an addition of a test compound. The reaction was terminated with an addition of 1N hydrochloric acid after 2 minutes and the cells were destructed using 12% triton X-100. An amount of cAMP in the supernatant was assayed by Homogeneous Trangient Fluorescence (HTRF)

Row | Ki [4] [nM] | IC50 [5] [nM] | SMILES | inhibition rate (%) infiltration of inflammatory cells [1] [%] | inhibition rate (%) airway hyperresponsiveness [2] [%] | inhibition rate (%) mucus-secretion [3] [%]
1 | 7.7 | 4.7 | CC(C)Oc1ccc(S(=O)(=O)N2CCC(n3cc(CC(=O)O)c4ccccc43)CC2)cc1 [Compound I-1] | 58 | 43 | 52
2 | 22 | 4.1 | CC(C)Oc1ccc(S(=O)(=O)N2CCC(n3cc(CC(=O)O)c4cc(Cl)ccc43)CC2)cc1 [Compound I-5] |  |  | 
3 |  | 4.8 | CCOc1ccc(S(=O)(=O)N2CCC(n3cc(CC(=O)O)c4cc(Cl)ccc43)CC2)cc1 [Compound I-6] |  |  | 
4 |  | 1.8 | CC(C)Oc1ccc(S(=O)(=O)N2CCC(n3cc(CC(=O)O)c4cc(Cl)ccc43)C2)cc1 (centres unmarked) [Compound I-7] |  |  | 
5 |  | 4.9 | CCOc1ccc(S(=O)(=O)N2CCC(n3cc(CC(=O)O)c4cc(Cl)ccc43)C2)cc1 (centres unmarked) [Compound I-8] |  |  | 
6 |  | 2 | CC(C)Oc1ccc(S(=O)(=O)N2CCC(n3cc(CC(=O)O)c4ccc(Cl)cc43)CC2)cc1 [Compound I-9] |  |  | 
7 |  | 6.9 | CCOc1ccc(S(=O)(=O)N2CCC(n3cc(CC(=O)O)c4ccc(Cl)cc43)CC2)cc1 [Compound I-10] |  |  | 
8 |  | 4.9 | CC(C)Oc1ccc(S(=O)(=O)N2CCC(n3cc(CC(=O)O)c4ccc(Cl)cc43)C2)cc1 (centres unmarked) [Compound I-11] | 56 | 77 | 30
9 |  | 6.9 | CCOc1ccc(S(=O)(=O)N2CCC(n3cc(CC(=O)O)c4ccc(Cl)cc43)C2)cc1 (centres unmarked) [Compound I-12] |  |  | 
10 | 5.6 | 2.2 | CC(C)Oc1ccc(S(=O)(=O)N2CCC(n3cc(CC(=O)O)c4cc(F)ccc43)CC2)cc1 [Compound I-14] |  |  | 
11 |  | 1.3 | CC(C)Oc1ccc(S(=O)(=O)N2CCC(n3cc(CC(=O)O)c4ccc(F)cc43)CC2)cc1 [Compound I-16] |  |  | 
12 |  | 3.8 | CC(C)Oc1ccc(S(=O)(=O)N2CC[C@@H](n3cc(CC(=O)O)c4ccccc43)C2)cc1 [Compound I-20] |  |  | 
13 |  | 3 | CC(C)Oc1ccc(S(=O)(=O)N2CC[C@H](n3nc(CC(=O)O)c4cc(Cl)ccc43)C2)cc1 [Compound I-21] |  |  | 
14 | 5.4 | 1.2 | CC(C)Oc1ccc(S(=O)(=O)N2CC[C@@H](n3cc(CC(=O)O)c4ccc(Cl)cc43)C2)cc1 [Compound I-30] |  |  | 
15 | 4.3 | 2.9 | CC(C)Oc1ccc(S(=O)(=O)N2CC[C@@H](n3cc(CC(=O)O)c4ccc(F)cc43)C2)cc1 [Compound I-31] |  |  | 

Row | SMILES | Ki [4] [nM] | IC50 [5] [nM] | inhibition rate (%) infiltration of inflammatory cells [1] [%] | inhibition rate (%) airway hyperresponsiveness [2] [%] | inhibition rate (%) mucus-secretion [3] [%]
16 | CC(C)Oc1ccc(S(=O)(=O)N2CCC(n3cc(C(=O)O)c4ccccc43)CC2)cc1 [Compound I-23] | 1.4 | 1.6 | 79 | 46 | 72
17 | CC(C)Oc1ccc(S(=O)(=O)N2CC[C@@H](n3cc(C(=O)O)c4ccc(Cl)cc43)C2)cc1 [Compound I-32] |  | 7 |  |  | 

From US8623903B2, “Indolecarboxylic acid derivative having PGD2 receptor antagonistic activity” (Shionogi & Co., Ltd., priority 2005, dated 2014)
